Results reported in article PMC8843100, “Development of newly synthesised quinazolinone-based CDK2 inhibitors with potent efficacy against melanoma” (Journal of Enzyme Inhibition and Medicinal Chemistry, 2022).

Experiments:
[1] = tested on: MCF7; test: NCI-60 single dose screen, sulforhodamine B; type: cell-based, human; settings: Breast cancer MCF7; single dose 10^−5 M
Description: (§1) In this research, all of the newly synthesised quinazolinones were subjected to in vitro anticancer screening by the National Cancer Institute (USA) against 60 different human cell lines including leukaemia, non-small cell lung cancer, colon cancer, CNS cancer, melanoma, ovarian cancer, renal cancer, prostate cancer, and breast cancer. The tested compounds were evaluated at a single dose (10^−5 M). […] Regarding the benzenesulfonamide counterparts, the introduction of an electron-withdrawing group on the benzenesulfonamide moiety increased the inhibitory activity on the glioblastoma cell line SNB-75 as depicted by the chloro derivative 5c (GI% = 63.09) which was higher than that of the unsubstituted derivative 5a (GI% = 40.06) and the methyl derivative 5b (GI% = 33.03).
(§2) 1. Cytotoxicity screening against a panel of 60 human tumor cell lines
(§3) All the compounds were selected for NCI-60 Human Tumor Cell Lines Screen by the Developmental Therapeutics Program (DTP) at the National Cancer Institute (NCI), Maryland, USA. The operation of this screen utilizes 60 different human tumor cell lines, representing leukemia, non-small-cell lung cancer, colon cancer, CNS cancer, melanoma, ovarian cancer, renal cancer, prostate cancer and breas t cancer.
(§4) The compounds were supplied as dry powder and a single concentration is tested in all 60 cell lines at a single dose of 10 µM solution in dimethyl sulfoxide (DMSO) using Sulforhodamine B assay. Briefly, cells are seeded in 96 well plates at an appropriate density and incubated for 1 day. After 1 day, some of the plates are processed to determine the density time zero. To the remaining plates, compounds are added at 10 µM concentration. Plates are incubated a further 2 days, then fixed and staine d with sulphorhodamine B. Growth inhibition is calculated relative to cells without drug treatment and the time zero control. The use of a time zero control allows the determination of cell kill as well as net growth inhibition.
(§5) 2. Detection of IC50 against MDA-MB-435, SNB-75 cell lines and normal cell line WI -38.
(§6) Antiproliferative activities of 5c in melanoma cell line MDA-MB-435, glioblastoma cell line SNB-75 and normal cell line WI -38 and that of 8a in melanoma cell line MDA-MB-435 and normal cell line WI-38 were measured spectrophotometrically using in vitro MTT based toxicology assay kit (catalog no. M -5655, M-8910) (Sigma Aldrich), according to the manufacturer’s protocol. The three examined cell lin es were obtained from American Type Culture Collection (ATCC). Briefly, cells were platted (cells density 1.2 – 1.8 × 10,000 cells/well) in a volume of 100 µl complete growth medium + 100 μl of the tested compound per well in a 96-well plate for 48 h before the MTT assay. The cultures were removed from incubator into laminar flow hood then each vial of MTT [M-5655] should be reconstituted with 3 ml of medium or balanced salt solution without phenol red and serum. Reconstituted MTT was added in an amount equal to […]

[2] = tested on: IGROV1; test: NCI-60 single dose screen, sulforhodamine B; type: cell-based, human; settings: Ovarian cancer IGROV1; single dose 10^−5 M
Description: as §1, §2, §3, §4, §5, §6

[3] = tested on: HL-60(TB); test: NCI-60 single dose screen, sulforhodamine B; type: cell-based, human; settings: Leukaemia HL-60(TB); single dose 10^−5 M
Description: as §1, §2, §3, §4, §5, §6

[4] = tested on: MDA-MB-468; test: NCI-60 single dose screen, sulforhodamine B; type: cell-based, human; settings: Breast cancer MDA-MB-468; single dose 10^−5 M
Description: as §1, §2, §3, §4, §5, §6

[5] = tested on: OVCAR-4; test: NCI-60 single dose screen, sulforhodamine B; type: cell-based, human; settings: Ovarian cancer OVCAR-4; single dose 10^−5 M
Description: as §1, §2, §3
as §4, with “inhibition. […]” for “inhibition.”

[6] = tested on: OVCAR-8; test: NCI-60 single dose screen, sulforhodamine B; type: cell-based, human; settings: Ovarian cancer OVCAR-8; single dose 10^−5 M
Description: as §1, §2, §3
as §4, with “inhibition. […]” for “inhibition.”

[7] = tested on: OVCAR-5; test: NCI-60 single dose screen, sulforhodamine B; type: cell-based, human; settings: Ovarian cancer OVCAR-5; single dose 10^−5 M
Description: as §1, §2, §3
as §4, with “inhibition. […]” for “inhibition.”

[8] = tested on: DU-145; test: NCI-60 single dose screen, sulforhodamine B; type: cell-based, human; settings: Prostate cancer DU-145; single dose 10^−5 M
Description: as §1, §2, §3
as §4, with “inhibition. […]” for “inhibition.”

[9] = tested on: HCT-116; test: NCI-60 single dose screen, sulforhodamine B; type: cell-based, human; settings: Colon cancer HCT-116; single dose 10^−5 M
Description: as §1, §2, §3
as §4, with “inhibition. […]” for “inhibition.”

[10] = tested on: TK-10; test: NCI-60 single dose screen, sulforhodamine B; type: cell-based, human; settings: Renal cancer TK-10; single dose 10^−5 M
Description: as §1, §2, §3
as §4, with “inhibition. […]” for “inhibition.”

[11] = tested on: SK-MEL-5; test: NCI-60 single dose screen, sulforhodamine B; type: cell-based, human; settings: Melanoma SK-MEL-5; single dose 10^−5 M
Description: as §1, §2, §3
as §4, with “inhibition. […]” for “inhibition.”

[12] = tested on: SF-539; test: NCI-60 single dose screen, sulforhodamine B; type: cell-based, human; settings: CNS cancer SF-539; single dose 10^−5 M
Description: as §1, §2, §3
as §4, with “inhibition. […]” for “inhibition.”

[13] = tested on: SK-MEL-28; test: NCI-60 single dose screen, sulforhodamine B; type: cell-based, human; settings: Melanoma SK-MEL-28; single dose 10^−5 M
Description: as §1, §2, §3
as §4, with “inhibition. […]” for “inhibition.”

[14] = tested on: SF-268; test: NCI-60 single dose screen, sulforhodamine B; type: cell-based, human; settings: CNS cancer SF-268; single dose 10^−5 M
Description: as §1, §2, §3
as §4, with “inhibition. […]” for “inhibition.”

[15] = tested on: T-47D; test: NCI-60 single dose screen, sulforhodamine B; type: cell-based, human; settings: Breast cancer T-47D; single dose 10^−5 M
Description: as §1, §2, §3
as §4, with “inhibition. […]” for “inhibition.”

[16] = tested on: RPMI-8226; test: NCI-60 single dose screen, sulforhodamine B; type: cell-based, human; settings: Leukaemia RPMI-8226; single dose 10^−5 M
Description: as §1, §2, §3
as §4, with “inhibition. […]” for “inhibition.”

[17] = tested on: NCI-H23; test: NCI-60 single dose screen, sulforhodamine B; type: cell-based, human; settings: Non-small cell lung cancer NCI-H23; single dose 10^−5 M
Description: as §1, §2, §3
as §4, with “inhibition. […]” for “inhibition.”

[18] = tested on: HCT-15; test: NCI-60 single dose screen, sulforhodamine B; type: cell-based, human; settings: Colon cancer HCT-15; single dose 10^−5 M
Description: as §1, §2, §3
as §4, with “inhibition. […]” for “inhibition.”

[19] = tested on: SK-MEL-2; test: NCI-60 single dose screen, sulforhodamine B; type: cell-based, human; settings: Melanoma SK-MEL-2; single dose 10^−5 M
Description: as §1, §2, §3
as §4, with “inhibition. […]” for “inhibition.”

[20] = tested on: HOP-62; test: NCI-60 single dose screen, sulforhodamine B; type: cell-based, human; settings: Non-small cell lung cancer HOP-62; single dose 10^−5 M
Description: as §1, §2, §3
as §4, with “inhibition. […]” for “inhibition.”

[21] = tested on: MOLT-4; test: NCI-60 single dose screen, sulforhodamine B; type: cell-based, human; settings: Leukaemia MOLT-4; single dose 10^−5 M
Description: as §1, §2, §3
as §4, with “inhibition. […]” for “inhibition.”

[22] = tested on: UO-31; test: NCI-60 single dose screen, sulforhodamine B; type: cell-based, human; settings: Renal cancer UO-31; single dose 10^−5 M
Description: as §1, §2, §3
as §4, with “inhibition. […]” for “inhibition.”

## COc1ccc(N2CCN(CC(=O)Nn3c(COc4ccccc4)nc4ccccc4c3=O)CC2)cc1 [Compound 8c, 2–(4-(4-methoxyphenyl)piperazin-1-yl)-N-(4-oxo-2-(phenoxymethyl)quinazolin-3(4H)-yl)acetamide]
[1]
  GI% at 10^−5 M: – (– means GI < 10%)
[2]
  GI% at 10^−5 M: – (– means GI < 10%)
[3]
  GI% at 10^−5 M: – (– means GI < 10%)
[4]
  GI% at 10^−5 M: – (– means GI < 10%)
other
  melting point: 100 to 102 °C
[5]
  GI% at 10^−5 M: – (– means GI < 10%)
[6]
  GI% at 10^−5 M: – (– means GI < 10%)
[7]
  GI% at 10^−5 M: – (– means GI < 10%)
[8]
  GI% at 10^−5 M: – (– means GI < 10%)
[9]
  GI% at 10^−5 M: – (– means GI < 10%)
[10]
  GI% at 10^−5 M: – (– means GI < 10%)
[11]
  GI% at 10^−5 M: – (– means GI < 10%)
[12]
  GI% at 10^−5 M: – (– means GI < 10%)
[13]
  GI% at 10^−5 M: – (– means GI < 10%)
[14]
  GI% at 10^−5 M: – (– means GI < 10%)
[15]
  GI% at 10^−5 M: – (– means GI < 10%)
[16]
  GI% at 10^−5 M: – (– means GI < 10%)
[17]
  GI% at 10^−5 M: – (– means GI < 10%)
[18]
  GI% at 10^−5 M: – (– means GI < 10%)
[19]
  GI% at 10^−5 M: – (– means GI < 10%)
[20]
  GI% at 10^−5 M: – (– means GI < 10%)
[21]
  GI% at 10^−5 M: – (– means GI < 10%)
[22]
  GI% at 10^−5 M: 10.03%
